Experimental findings from US4576943A, “Pyrazolo[1,5-a]pyrimidines” (American Cyanamid Company, priority 1984, dated 1986) are described below.

Assay [1] deals with brain-specific receptors (tritiated benzodiazepine binding, P2-synaptosomal fraction of rat whole cortex). In words: Inhibition of the binding of 3H-benzodiazepine to brain-specific receptors of rats. Set-up: species or system Male albino rats (Wistar strain). As to conditions: 3H-diazepam (1.5 nM) or 3H-flunitrazepam (1.0 nM), pH 7.4, 30 minutes in ice; test concentration not given.

Assay [2] in a line: Hypotensive activity in spontaneously hypertensive rats. It counts as in vivo, spontaneously hypertensive rats of the Okamoto strain. As to conditions: 100 mg/kg by gavage, two doses 24 hours apart, measured at 28 hours after the initial dose; one or two rats. As for the experimental part: The novel compounds of the present invention are active hypotensive agents and were tested for hypotensive activity by the method of P. S. Chan and D. Poorvin, Clinical and Experimental Hypertension, 1 (6), 817-830 (1979). […] One to 3 rats are used per test compound. A rat is dosed by gavage with a test compound suspended in 2% pre-boiled starch at a concentration of 50 mg/ml, at a dose of 100 mg/kg of body weight or less, with 0.9% sodium chloride loading at a dose of 25 ml/kg of body weight. A second identical dose of the test compound, without sodium chloride loading is given 24 hours later. At 28 hours after the initial dose the mean arterial blood pressure is measured by the method of Chan and Poorvin (see above). The procedure is repeated in a second and third rat when necessary. The results of this test on representative compounds of the present invention which were obtained using one or two rats, at a dose of 100 mg/kg of body weight appear below in Table I.

Assay [3] is described as follows: Hypoxic Survival Test. As to conditions: for % Survivors: 10% oxygen, 5 minutes. The format is in vivo, Royal Hart mice. As to the method: Groups of 20 Royal Hart mice (6 weeks of age) are injected intraperitoneally with 10, 50 or 100 mg/kg of test compound 30 minutes prior to placing them in a hypoxic mixture (10% oxygen in 90% […]) and measuring survival after 5 minutes.
A separate group of 20 mice is injected intraperitoneally with saline solution (0.01 cc/g of body weight) and processed as described above.
Still another group of 20 mice is injected intraperitoneally with 0.125 mg/kg of physostigmine and processed as described above.

The structures appear in SMILES notation.

Regarding `N#Cc1c(N2CCN(CCO)CC2)nn2c(-c3cccnc3)ccnc12` [2-[4-(2-Hydroxyethyl)-1-piperazinyl]-7-(3-pyridinyl)pyrazolo[1,5-a]pyrimidine-3-carbonitrile], the “% Inhibition of the binding of 3H-benzodiazepine” value (“% Inhibition” for short) in assay [1] is listed as 25%.
Take `COc1cccc(CN2CCN(c3nn4c(-c5cccc(C(F)(F)F)c5)ccnc4c3C#N)CC2)c1` [2-[4-[(3-Methoxyphenyl)methyl]-1-piperazinyl]-7-[3-(trifluoromethyl)phenyl]pyrazolo[1,5-a]pyrimidine-3-carbonitrile]: the “Mean Arterial Blood Pressure” value in assay [2] is 140 mm of mercury.
Turning to `CN1CCN(c2nn3c(-c4cccc(C(F)(F)F)c4)ccnc3c2C#N)CC1` [2-(4-Methyl-1-piperazinyl)-7-[3-(trifluoromethyl)phenyl]pyrazolo[1,5-a]pyrimidine-3-carbonitrile], the “Mean Arterial Blood Pressure” value in assay [2] is recorded as 139 mm of mercury.
In the case of `N#Cc1c(N2CCCCC2)nn2c(-c3cccnc3)ccnc12` [2-(1-Piperidinyl)-7-(3-pyridinyl)pyrazolo[1,5-a]pyrimidine-3-carbonitrile], the “Mean Arterial Blood Pressure” value in assay [2] is on record as 141 mm of mercury. For the same molecule, in assay [1], the “% Inhibition” value was 14%. Further, in assay [3] (100 mg/kg i.p.), the “% Survivors” value is 45%.
As to `COc1cccc(CN2CCN(c3nn4c(-c5cccnc5)ccnc4c3C#N)CC2)c1.Cl` [2-[4-[(3-Methoxyphenyl)methyl]-1-piperazinyl]-7-(3-pyridinyl)pyrazolo[1,5-a]pyrimidine-3-carbonitrile, monohydrochloride], the “Mean Arterial Blood Pressure” value in assay [2] was 138 mm of mercury. In addition, the “% Inhibition” value in assay [1] is on record as 18%.
In the case of `N#Cc1c(N2CCN(Cc3ccccc3)CC2)nn2c(-c3ccc(Cl)cc3)ccnc12` [7-(4-Chlorophenyl)-2-[4-(phenylmethyl)-1-piperazinyl]pyrazolo[1,5-a]pyrimidine-3-carbonitrile], the “Mean Arterial Blood Pressure” value in assay [2] is on record as 142 mm of mercury.
As to `COc1ccc(CN2CCN(c3nn4c(-c5cccc(C(F)(F)F)c5)ccnc4c3C#N)CC2)cc1` [2-[4-[(4-Methoxyphenyl)methyl]-1-piperazinyl]-7-[3-(trifluoromethyl)phenyl]pyrazolo[1,5-a]pyrimidine-3-carbonitrile], the “Mean Arterial Blood Pressure” value in assay [2] was 136 mm of mercury. The “% Inhibition” value in assay [1] stood at 18%.
Consider `N#Cc1c(N2CCN(Cc3ccc(Cl)cc3)CC2)nn2c(-c3cccc(C(F)(F)F)c3)ccnc12` [2-[4-[(4-Chlorophenyl)methyl]-1-piperazinyl]-7-[3-(trifluoromethyl)phenyl]pyrazolo[1,5-a]pyrimidine-3-carbonitrile], for which the “Mean Arterial Blood Pressure” value in assay [2] is 127 mm of mercury. In addition, the “% Inhibition” value in assay [1] was determined as 15%.
Turning to `N#Cc1c(N2CCSCC2)nn2c(-c3cccc(C(F)(F)F)c3)ccnc12` [2-(4-Thiomorpholinyl)-7-[3-(trifluoromethyl)phenyl]pyrazolo[1,5-a]pyrimidine-3-carbonitrile], the “Mean Arterial Blood Pressure” value in assay [2] is given as 148 mm of mercury.
As to `CNC(=O)Oc1ccc2c(c1)[C@]1(C)CCN(C)[C@@H]1N2C` [physostigmine, reference compound], in assay [3] (0.125 mg/kg i.p., 5 minute exposure), the “physostigmine treated mice survive” value is given as 60-80%.
For the molecule `N#Cc1c(N2CCN(Cc3cccc(Cl)c3)CC2)nn2c(-c3cccc(C(F)(F)F)c3)ccnc12` [2-[4-[(3-Chlorophenyl)methyl]-1-piperazinyl]-7-[3-(trifluoromethyl)phenyl]pyrazolo[1,5-a]pyrimidine-3-carbonitrile], the “% Inhibition” value in assay [1] was 33%.
In the case of `N#Cc1c(N2CCN(Cc3ccc(Cl)cc3)CC2)nn2c(-c3cccnc3)ccnc12` [2-[4-[(4-Chlorophenyl)methyl]-1-piperazinyl]-7-(3-pyridinyl)pyrazolo[1,5-a]pyrimidine-3-carbonitrile], the “Mean Arterial Blood Pressure” value in assay [2] is 137 mm of mercury.
On to `N#Cc1c(N2CCN(CCCCOc3ccccc3)CC2)nn2c(-c3cccc(C(F)(F)F)c3)ccnc12` [2-[4-(4-Phenoxybutyl)-1-piperazinyl]-7-[3-(trifluoromethyl)phenyl]pyrazolo[1,5-a]pyrimidine-3-carbonitrile], for which the “Mean Arterial Blood Pressure” value in assay [2] is 147 mm of mercury. Also, the “% Inhibition” value in assay [1] is reported as 26%.
On to `CN(C)C=NC(=O)c1c(N2CCN(Cc3ccccc3)CC2)nn2c(-c3cccc(C(F)(F)F)c3)ccnc12` [N-[(Dimethylamino)methylene]-2-[4-(phenylmethyl)-1-piperazinyl]-7-[3-(trifluoromethyl)phenyl]pyrazolo-[1,5-a]pyrimidine-3-carboxamide], for which the “Mean Arterial Blood Pressure” value in assay [2] is 103 mm of mercury.
Regarding `N#Cc1c(N2CCN(CCCCOc3ccccc3)CC2)nn2c(-c3cccnc3)ccnc12` [2-[4-(4-Phenoxybutyl)-1-piperazinyl]-7-(3-pyridinyl)pyrazolo[1,5-a]pyrimidine-3-carbonitrile], the “Mean Arterial Blood Pressure” value in assay [2] was 144 mm of mercury. Further, in assay [1], the “% Inhibition” value was determined as 33%.
The corresponding values for `N#Cc1c(N2CCN(Cc3cccc(Cl)c3)CC2)nn2c(-c3cccnc3)ccnc12` [2-[4-[(3-Chlorophenyl)methyl]-1-piperazinyl]-7-(3-pyridinyl)pyrazolo[1,5-a]pyrimidine-3-carbonitrile] are 137 mm of mercury and 12%.
The like results for `N#Cc1c(N2CCC(Cc3ccccc3)CC2)nn2c(-c3cccc(C(F)(F)F)c3)ccnc12` [2-[4-(Phenylmethyl)-1-piperidinyl]-7-[3-(trifluoromethyl)phenyl]pyrazolo[1,5-a]pyrimidine-3-carbonitrile] were, in that order, 142 mm of mercury and 46%.
Consider `N#Cc1c(N2CCN(CCO)CC2)nn2c(-c3cccc(C(F)(F)F)c3)ccnc12` [2-[4-(2-Hydroxyethyl)-1-piperazinyl]-7-[3-(trifluoromethyl)phenyl]pyrazolo[1,5-a]pyrimidine-3-carbonitrile], for which, in assay [2], the “Mean Arterial Blood Pressure” value is recorded as 111 mm of mercury. In addition, in assay [1], the “% Inhibition” value turned out to be 41%. Moreover, in assay [3] (10 mg/kg i.p.), the “% Survivors” value is recorded as 45%.
Turning to `N#Cc1c(N2CCSCC2)nn2c(-c3cccnc3)ccnc12` [7-(3-Pyridinyl)-2-(4-thiomorpholinyl)pyrazolo[1,5-a]pyrimidine-3-carbonitrile], the “Mean Arterial Blood Pressure” value in assay [2] was 141 mm of mercury. The “% Survivors” value in assay [3] (100 mg/kg i.p.) was 50%.
In the case of `Cc1cc(-c2ccncc2)n2nc(N3CCN(Cc4ccccc4)CC3)c(C#N)c2n1` [5-Methyl-2-[4-(phenylmethyl)-1-piperazinyl]-7-(4-pyridinyl)pyrazolo[1,5-a]pyrimidine-3-carbonitrile], in assay [2], the “Mean Arterial Blood Pressure” value is reported as 122 mm of mercury.
As for `N#Cc1c(N2CCN(Cc3ccccc3)CC2)nn2c(-c3cccc(Cl)c3)ccnc12` [7-(3-Chlorophenyl)-2-[4-(phenylmethyl)-1-piperazinyl]pyrazolo[1,5-a]pyrimidine-3-carbonitrile], in assay [2], the “Mean Arterial Blood Pressure” value is listed as 147 mm of mercury. Further, the “% Survivors” value in assay [3] (50 mg/kg i.p.) is 47%.
For the molecule `N#Cc1c(N2CCN(Cc3c(Cl)cccc3Cl)CC2)nn2c(-c3cccc(C(F)(F)F)c3)ccnc12` [2-[4-[(2,6-Dichlorophenyl)methyl]-1-piperazinyl]-7-[3-(trifluoromethyl)phenyl]pyrazolo[1,5-a]pyrimidine-3-carbonitrile], in assay [1], the “% Inhibition” value stood at 22%.
For the molecule `N#Cc1c(N2CCN(Cc3ccccc3)CC2)nn2c(-c3cccnc3)ccnc12` [2-[4-(Phenylmethyl)-1-piperazinyl]-7-(3-pyridinyl)pyrazolo[1,5-a]pyrimidine-3-carbonitrile], in assay [2], the “Mean Arterial Blood Pressure” value is on record as 124 mm of mercury. For the same molecule, the “% Survivors” value in assay [3] (50 mg/kg i.p.) is given as 40%.
For the molecule `N#Cc1c(N2CCN(c3ccccn3)CC2)nn2c(-c3cccnc3)ccnc12` [7-(3-Pyridinyl)-2-[4-(2-pyridinyl)-1-piperazinyl]pyrazolo[1,5-a]pyrimidine-3-carbonitrile], in assay [2], the “Mean Arterial Blood Pressure” value is listed as 143 mm of mercury.
In the case of `NC(=O)c1c(N2CCN(Cc3ccccc3)CC2)nn2c(-c3cccc(C(F)(F)F)c3)ccnc12` [2-[4-(Phenylmethyl)-1-piperazinyl]-7-[3-(trifluoromethyl)phenyl]pyrazolo[1,5-a]pyrimidine-3-carboxamide], the “% Inhibition” value in assay [1] came out at 14%.
For the molecule `N#Cc1c(N2CCN(Cc3c(Cl)cccc3Cl)CC2)nn2c(-c3cccnc3)ccnc12` [2-[4-[(2,6-Dichlorophenyl)methyl]-1-piperazinyl]-7-(3-pyridinyl)pyrazolo[1,5-a]pyrimidine-3-carbonitrile], in assay [2], the “Mean Arterial Blood Pressure” value was 124 mm of mercury.
